Assay results taken from PubChem BioAssay (NCI).
Several values for one entry are separate records, joined by “and”; a condition that tells them apart may be missing. Equal values may be shown once.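 Method: 48-hour compound exposure of cells in 96-well plates, five concentrations, linear interpolation of endpoints. GI50 is the concentration that inhibits growth by half. Definition used: TGI = concentration required for complete inhibition of growth.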 *1 amine or outer side, *2 acyl side, *3 side chain or, on linkers, in order; H or OH if unused. Where a SMILES comes first, the peptide text is derived from it. Bridges are numbered along the chain shown (N, C = ends). [ ]: non-standard residue; d: D form. ξ: configuration not given here. X4 = CCC(C)C(N[*:1])C(O)CC(=O)O[C@H](C(=O)C(C)C(=O)[*:2])C(C)C; NMeY = CN[C@@H](Cc1ccc(O)cc1)C(=O)O; ξNMeL = CNC(CC(C)C)C(=O)O; ξT = CC(O)C(N)C(=O)O

Key:
Assay in all cases: inhibition of tumour cell growth, NCI panel, 48 h
[1] = tested on: UO-31 renal
[2] = tested on: COLO 205 colon
[3] = tested on: HT29 colon
[4] = tested on: SF-295 CNS
[5] = tested on: SNB-75 CNS
[6] = tested on: LOX IMVI melanoma
[7] = tested on: CAKI-1 renal
[8] = tested on: OVCAR-4 ovarian
[9] = tested on: MDA-MB-231 breast
[10] = tested on: 786-0 renal

SMILES	TGI [1]	TGI [2] [µM]	TGI [3]	TGI [4] [µM]	TGI [5]	TGI [6]	TGI [7]	TGI [8]	TGI [9] [µM]	TGI [10]	GI50 [1] [µM]	GI50 [2] [µM]	GI50 [3] [µM]	GI50 [4] [µM]	GI50 [5] [µM]	GI50 [6] [µM]	GI50 [7] [µM]	GI50 [8] [µM]	GI50 [9] [µM]
CCCCCCCCCCCCCCCCCCOCC(O)COP(=O)(O)OCC1OC(n2cc(F)c(=O)[nH]c2=O)CC1O (stereo not given)	19.6 µM	21.9	23.6 µM	19	27.8 µM	15.1 µM	26.8 µM	32.2 µM	36.1	17.8 µM	–	–	–	–	–	–	–	–	–
CC(C)n1c(=O)n(-c2ccccc2)n(C(C)(C)C)c1=O	> 100 µM	> 100	> 100 µM	> 100	> 100 µM	> 100 µM	> 100 µM	> 100 µM	> 100	> 100 µM	–	–	–	–	–	–	–	–	–
COC(=O)C1(C(=O)OC)N=C(C)OC1C(C)C (stereo not given)	> 100 µM	> 100	–	> 100	> 100 µM	> 100 µM	> 100 µM	> 100 µM	–	> 100 µM	–	–	–	–	–	–	–	–	–
O=C(NNC(=S)Nc1ccccc1)c1csc(NC(=S)NC2CCCCC2)n1	79.6 µM	> 100	> 100 µM	> 100	> 100 µM	69.5 µM	> 100 µM	–	> 100	> 100 µM	–	–	–	–	–	–	–	–	–
CCC(C)C1NC(=O)C(NC(=O)C(CC(C)C)N(C)C(=O)[C@@H]2CCCN2)C(C)OC(=O)[C@H](Cc2ccc(OC)cc2)N(C)C(=O)[C@@H]2CCCN2C(=O)[C@H](CC(C)C)NC(=O)C(C)C(=O)[C@H](C(C)C)OC(=O)CC1O (stereo not given in full) (H-P[ξNMeL][ξT][X4]LP[NMeY](Me); ester 3-C)	0.118 µM and 0.444 µM	–	0.0151 µM and 0.0127 µM	0.0149	0.00813 µM and 0.0191 µM	0.00206 µM and 0.0101 µM	0.364 µM and 0.13 µM	0.00369 µM and 0.0185 µM	–	0.0115 µM and 0.0174 µM	0.0253	–	–	–	–	–	–	–	–
CN1C2CC(=O)CC1[C@@H]1OC(c3ccccc3)O[C@H]21 (stereo not given in full)	> 100 µM	> 100	> 100 µM	> 100	> 100 µM	> 100 µM	> 100 µM	> 100 µM	> 100	> 100 µM	–	–	–	–	–	–	–	–	–
O=C(Nc1cccc(-c2cn3ccccc3n2)c1)c1ccncc1	> 100 µM	88.8	> 100 µM	> 100	> 100 µM	> 100 µM	> 100 µM	> 100 µM	98.7	> 100 µM	–	–	–	–	–	–	–	–	–
COC(OC)C(O)C1OC=CC1n1cnc2c(N)ncnc21 (stereo not given)	> 100 µM	> 100	> 100 µM	> 100	> 100 µM	> 100 µM	> 100 µM	> 100 µM	> 100	> 100 µM	–	–	–	–	–	–	–	–	–
Cc1ccc(O)c(C2=NNC(c3cccc(Br)c3)C2)c1 (stereo not given)	> 100 µM	> 100	> 100 µM	> 100	–	> 100 µM	> 100 µM	–	–	> 100 µM	–	–	–	–	–	–	–	–	–
N#CC1=CNc2sccc2S1(=O)=O	> 100 µM	> 100	> 100 µM	> 100	> 100 µM	> 100 µM	> 100 µM	> 100 µM	> 100	> 100 µM	–	–	–	–	–	–	–	–	–
O=C(c1ccco1)N(C(=S)OCc1ccccn1)c1ccccc1	> 100 µM	> 100	> 100 µM	–	–	> 100 µM	> 100 µM	–	> 100	> 100 µM	–	–	–	–	–	–	–	–	–
O=C(N=Nc1ccccc1Br)NNc1ccccc1Br	> 100 µM	–	> 100 µM	–	> 100 µM	> 100 µM	> 100 µM	> 100 µM	> 100	> 100 µM	–	–	–	–	–	–	–	–	–
COC1/C=C/C(C)C(C(C)C(OC)C(C)CCC(=O)C(C)C(CCC(=O)O)OC)OC(=O)/C=C/C=C(\C)CC(OC)CC2=CC(=O)O[C@@H](C(C)C(OC)CC(OC)/C=C/C(C)C(OC)C1)[C@H]2O (stereo not given in full)	–	> 5	> 5 µM	> 5	2.22 µM	> 3.67 µM	0.934 µM	> 5 µM	1.78	> 4.55 µM	–	–	–	–	–	–	–	–	–
COc1cccc(-c2nc3sccn3c2-c2ccnc(NCCNC(=O)Nc3cccc(C(F)(F)F)c3)n2)c1	24.8 µM	19.2	14 µM	14.9	21.7 µM	> 100 µM	10.3 µM	34.1 µM	12	–	2.88	5.37	3.33	2.8	3.41	4.11	3.5	3.78	3.47
Cc1ccc(S(=O)(=O)N2CCN(CCN(C)CCN3CCN(S(=O)(=O)c4ccc(C)cc4)CC3)CC2)cc1	26.8 µM	38.9	29.9 µM	31.9	–	33 µM	40.5 µM	43.7 µM	49	39.3 µM	–	–	–	–	–	–	–	–	–
Cc1cc(S(=O)(=O)Nc2nc(N)nc(N3N=CCC3C)n2)c(S)cc1Cl (stereo not given)	> 10 µM	> 10	> 10 µM	> 10	> 10 µM	> 10 µM	> 10 µM	> 10 µM	–	> 10 µM	–	–	–	–	–	–	–	–	–
O=C1[C@@H]2Cc3c([nH]c4ccccc34)C(C3CCCCC3)N2C(=O)[C@@H]2CCCN12 (stereo not given in full)	> 100 µM	42.9	73.4 µM	61.1	–	73.9 µM	80.8 µM	> 100 µM	50.2	75.9 µM	–	–	–	–	–	–	–	–	–
NC(CCCCNC(=O)OCc1ccccc1)C(=O)NC(CCCCNC(=O)OCc1ccccc1)C(=O)ON1C(=O)CCC1=O (stereo not given)	> 100 µM	> 100	> 100 µM	–	> 100 µM	–	–	–	> 100	> 100 µM	–	–	–	–	–	–	–	–	–
NC(=O)COc1ccccc1	> 100 µM	> 100	> 100 µM	> 100	> 100 µM	> 100 µM	> 100 µM	> 100 µM	–	> 100 µM	–	–	–	–	–	–	–	–	–
N#Cc1c2c(c(N3CCOCC3)n3c1nc1ccccc13)CCCC2	35.4 µM	37.5	38.6 µM	34.8	–	41.1 µM	37.9 µM	51.4 µM	54.7	41.3 µM	–	–	–	–	–	–	–	–	–
COc1ccc(OC)c2cc(Cc3ccc(N(C)C)cc3)c(=O)c(Cc3ccc(N(C)C)cc3)cc12	> 100 µM	> 100	> 100 µM	> 100	> 100 µM	–	> 100 µM	> 100 µM	> 100	> 100 µM	–	–	–	–	–	–	–	–	–
